Data published in PubChem BioAssay (NCI).
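Assay format: 96-well plates, 48-hour exposure. GI50: concentration for 50% inhibition of growth. TGI: concentration producing complete growth inhibition.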

Assays:
Test in all cases: DTP human tumour cell line panel, 48 h
LOX IMVI melanoma = tested on: LOX IMVI melanoma
IGROV1 ovarian = tested on: IGROV1 ovarian
MOLT-4 leukemia = tested on: MOLT-4 leukemia
CCRF-CEM leukemia = tested on: CCRF-CEM leukemia
SNB-19 CNS = tested on: SNB-19 CNS
HCC-2998 colon = tested on: HCC-2998 colon
HL-60(TB) leukemia = tested on: HL-60(TB) leukemia
OVCAR-4 ovarian = tested on: OVCAR-4 ovarian
PC-3 prostate = tested on: PC-3 prostate
MDA-MB-435 = tested on: MDA-MB-435

Row | SMILES | TGI (LOX IMVI melanoma) | TGI (IGROV1 ovarian) | TGI (MOLT-4 leukemia) | TGI (CCRF-CEM leukemia) | TGI (SNB-19 CNS) | TGI (HCC-2998 colon) | TGI (HL-60(TB) leukemia) | TGI (OVCAR-4 ovarian) | TGI (PC-3 prostate) | TGI (MDA-MB-435) | GI50 (LOX IMVI melanoma) | GI50 (IGROV1 ovarian) | GI50 (MOLT-4 leukemia) | GI50 (CCRF-CEM leukemia) | GI50 (SNB-19 CNS) | GI50 (HCC-2998 colon) | GI50 (OVCAR-4 ovarian) | GI50 (HL-60(TB) leukemia) | GI50 (PC-3 prostate) | GI50 (MDA-MB-435)
1 | COC(=O)c1cc(=O)nc2cc3cccccc3n12 | > 100 µM | > 100 µM | > 100 µM | > 100 µM | > 100 µM | > 100 µM | > 100 µM | – | – | – | – | – | – | – | – | – | – | – | – | –
2 | O=C1c2ccccc2C(=O)C12CCc1ccccc12 | > 100 µM | > 100 µM | > 100 µM | > 100 µM | – | > 100 µM | > 100 µM | > 100 µM | – | – | – | – | – | – | – | – | – | – | – | –
3 | CC(/C=C/C(O)=C1/C(=O)CNC1=O)=C\[C@@H](C)[C@H]1O[C@@]2(C)O[C@H](C(=O)[C@@H]3O[C@@]32C)[C@@H]1C | 33.5 µM | 44.9 µM | 72.2 µM | > 100 µM | 55.4 µM | – | 80.6 µM | – | 31.8 µM | 83.1 µM | – | – | – | – | – | – | – | – | – | –
4 | COc1ccc(/C=C2\CCC(CCN(C)C)(C3=CCCC3)C2=O)cc1 (stereo unspecified) | 30.8 µM | 33.2 µM | 51 µM | 53 µM | 31.6 µM | 32.9 µM | 36.6 µM | 44.5 µM | – | – | – | – | – | – | – | – | – | – | – | –
5 | CC(=O)OC(C(=O)[O][Sn]([CH3])([CH3])[CH3])c1ccccc1 (stereo unspecified) | > 100 µM | > 100 µM | > 100 µM | > 100 µM | > 100 µM | > 100 µM | > 100 µM | > 100 µM | – | – | > 100 µM | > 100 µM | > 100 µM | 63.4 µM | > 100 µM | > 100 µM | > 100 µM | > 100 µM | – | –
6 | CSc1ncnc2c1ncn2CC(=O)C1CCC2C3CCC4=CC(=O)CCC4(C)C3CCC12C (stereo unspecified) | 19.4 µM | > 100 µM | 4.93 µM | 2.16 µM | > 100 µM | – | 0.926 µM | 21.3 µM | 9.71 µM | 10 µM | – | – | – | – | – | – | – | – | – | –
7 | CO[C@H]1/C=C/O[C@@]2(C)Oc3c(C)c(O)c4c(O)c(c(/C=N/N5CCN(C)CC5)c(O)c4c3C2=O)NC(=O)/C(C)=C\C=C\[C@H](C)[C@H](O)[C@@H](C)[C@@H](O)[C@@H](C)[C@H](OC(C)=O)[C@@H]1C | – | > 100 µM | > 100 µM | 81.8 µM | – | > 100 µM | – | – | > 100 µM | > 100 µM | – | – | – | – | – | – | – | – | – | –
8 | CC(C)(C)NCC(O)COc1c(Br)c(Br)c(Br)c2c1OC(C)(C)C2 (stereo unspecified) | 3.1 µM | 3.36 µM | 3.16 µM | 3.76 µM | – | – | 3.1 µM | – | 3.18 µM | 3.96 µM | 1.68 µM | 1.77 µM | 1.59 µM | 1.97 µM | – | – | – | 1.53 µM | 1.66 µM | 2.02 µM
9 | CN(C)CCCOc1cccc(NC2=C(Cl)C(=O)C(Nc3cccc(OCCCN(C)C)c3)=C(Cl)C2=O)c1 | 0.346 µM | – | 1.59 µM | 3.26 µM | 3.32 µM | 2.81 µM | – | 0.592 µM | 3.29 µM | 2.44 µM | 0.175 µM | – | 0.515 µM | 0.402 µM | 1.78 µM | 1.34 µM | 0.216 µM | – | 1.57 µM | 1.04 µM
10 | N=c1c2ccccc2sc2nc3ccccc3n12 | > 100 µM | > 100 µM | > 100 µM | > 100 µM | > 100 µM | > 100 µM | > 100 µM | > 100 µM | – | – | – | – | – | – | – | – | – | – | – | –
11 | COc1cc(OC)c2sc(-c3ccc(-n4cncc4-c4ccc(OC)c(OC)c4)cc3)nc2c1 | > 100 µM | > 100 µM | – | > 100 µM | > 100 µM | > 100 µM | > 100 µM | > 100 µM | > 100 µM | – | > 100 µM | 56.1 µM | – | > 100 µM | > 100 µM | > 100 µM | 4.21 µM | 3.09 µM | 3.66 µM | –
12 | O=C1c2cccnc2-c2nc(-c3cccnc3)cc3c2c1nc1ccccc13 | > 25.1 µM | 28.4 µM | > 41.3 µM | > 100 µM | 21 µM | – | > 100 µM | 19.8 µM | 26.7 µM | 32 µM | 2.8 µM | 3.12 µM | 3.21 µM | 5.23 µM | 5.59 µM | – | 5.07 µM | 2.11 µM | 4.4 µM | 5.58 µM
13 | CCOC(=O)C1Cc2ccc3c4c(ccc(c24)C1)CC(C(=O)OCC)C3 | > 100 µM | > 100 µM | > 100 µM | > 100 µM | > 100 µM | > 100 µM | > 100 µM | – | – | – | – | – | – | – | – | – | – | – | – | –
14 | C=C1C(=O)O[C@H]2[C@H]1CC/C(COC(=O)N[C@H]1C[C@H](O[C@H]3C[C@](O)(C(=O)CO)Cc4c(O)c5c(c(O)c43)C(=O)c3c(OC)cccc3C5=O)O[C@@H](C)[C@H]1O)=C\CC[C@@]1(C)O[C@@H]21 | 8.25 µM | 19 µM | 2.83 µM | 2.28 µM | > 50 µM | 28.7 µM | – | 12.3 µM | 30.8 µM | 22.2 µM | 2.17 µM | 5.77 µM | 1.03 µM | 0.672 µM | 13.2 µM | 11.8 µM | 3.47 µM | – | 7.8 µM | 6.31 µM
15 | CN(C)C(=S)/N=c1\ssc(=S)n1C | – | > 100 µM | > 100 µM | > 100 µM | > 100 µM | > 100 µM | > 100 µM | > 100 µM | – | – | – | – | – | – | – | – | – | – | – | –
16 | CC1=Nc2ccccc2SC(c2c(Cl)cccc2Cl)C1 (stereo unspecified) | 1.04 µM | 3.31 µM | 12.4 µM | 2.26 µM | 2.7 µM | 3.18 µM | 1.12 µM | 4.56 µM | – | – | – | – | – | – | – | – | – | – | – | –
17 | COc1ccccc1-c1cc(=O)c2cc(C)c(C)c(C(=O)O)c2o1 | > 100 µM | > 100 µM | > 100 µM | > 100 µM | > 100 µM | > 100 µM | > 100 µM | > 100 µM | – | – | – | – | – | – | – | – | – | – | – | –
18 | C[N+](C)(C)CC1CCCCC1=O (stereo unspecified) | 27.5 µM | > 100 µM | 35.3 µM | 20.2 µM | > 100 µM | – | 34.7 µM | – | – | – | – | – | – | – | – | – | – | – | – | –
19 | Cc1cc(NCc2cc(Nc3ccnc4cc(Cl)ccc34)ccc2F)nc(N2CCOCC2)n1 | – | 5.11 µM | > 100 µM | 34.6 µM | 54.4 µM | 5.44 µM | 3.82 µM | – | 7.65 µM | – | – | 1.93 µM | 2.95 µM | 2.53 µM | 3.79 µM | 2.27 µM | – | 1.77 µM | 2.28 µM | –
